Source: US20110044952A1, “AMPLIFICATION OF CANCER-SPECIFIC ONCOLYTIC VIRAL INFECTION BY HISTONE DEACETYLASE INHIBITORS” (Ottawa Health Research Institute, priority 2007, published 2011)
“Also recorded” adds a separate entry of the source. Like-named read-outs stand apart in the source and are kept apart here.

Key:
DBT glioma cells = settings: mouse
IFN-α = type: cell-based, human
VVDD [1] = type: cell-based, vaccinia virus
VSV-d51-GFP [2] = system: VSV-d51-GFP
[3] = system: primary prostate cancer cells; type: cell-based
VSV-d51-GFP [4] = type: cell-based
VSVΔ51-Luc [5] = system: VSVΔ51-Luc; design: species or system BALB/c mice; settings: mouse, in vivo, 20 mg/kg
VSVΔ51-Luc [6] = system: VSVΔ51-Luc; design: species or system CD1 nude mice; settings: mouse, in vivo
[7] = system: IFN antiviral response pathway; type: cell-based
[8] = system: VSVΔ51 neutralizing antibody; settings: mouse, in vivo
PC3 cells = type: cell-based
IFN antiviral response = type: cell-based
[9] = system: semliki forest virus (VA7); assay: Semliki forest virus (VA7) spread and titers in glioma cell lines; type: cell-based
VVDD [10] = type: cell-based, vaccinia virus; settings: TSA 0.156 μM 3 hours pre-treatment
B16-F10-lacZ = B16-F10-lacZ lung metastasis model; type: in vivo, C57BI6 mice; settings: 0.05 mg TSA i.p. daily to day 4 + 10^7 pfu VVdd i.v. twice; lungs day 14; p<0.05 vs PBS, VVdd or TSA single treatments
VSV-d51-GFP [11] = type: cell-based; settings: 24 hours

Molecule | VA7-mediated cytotoxicity (cell viability) (DBT glioma cells) | IFN production (IFN-α ELISA) (IFN-α) | VSV-GFP replication (flow cytometry) (normal PBMCs) | sensitivity of normal tissue to VSV infection (VSV-d51-GFP [2]) | VSV replication (GFP, flow cytometry) [3] | VSV replication (GFP-positive cells, fluorescent microscopy) (VSV-d51-GFP [4]) | IRF3 phosphorylation [7] | activation of IRF7, ISG56 and RIG-I [7] | JC-1 green fluorescence (mitochondrial membrane potential) (PC3 cells) | activation of caspase 9 (immunoblot) (PC3 cells) | number of Annexin V-positive apoptotic cells (flow cytometry) (PC3 cells) | visible signs of cell death (phase-contrast microscopy) (PC3 cells) | induction of MxA mRNA (IFN antiviral response) | level of IFN-β mRNA (IFN antiviral response) | other results
CCC(=O)CCCCC[C@@H]1NC(=O)[C@H]2CCCCN2C(=O)[C@H]([C@@H](C)CC)NC(=O)[C@H](Cc2cn(OC)c3ccccc23)NC1=O [Apicidin] | enhance VA7-mediated cytotoxicity | – | – | – | – | – | – | – | – | – | – | – | – | – | –
Nc1ccccc1NC(=O)c1ccc(CNC(=O)OCc2cccnc2)cc1 [MS-275] | – | significantly inhibited IFN production | did not increase VSV-GFP replication | specific towards cancer cells | allowed effective VSV replication | allowed effective VSV replication | allowed detection of IRF3 phosphorylation and concomitant degradation | inhibited | increased JC-1 green fluorescence | significant activation | synergistically enhanced the number of Annexin V-positive apoptotic cells | not able to induce visible signs of cell death | decreased the induction of MxA mRNA | significantly lower; also recorded: undetectable levels | replication of VVDD (VVDD [1]): able to synergize the replication of VVDD in 4T1, B16 and SW620 cells; viral replication (IVIS) (VSVΔ51-Luc [5]): more robust and persistent viral replication; VSV antigen in tumors (IHC of frozen sections) (VSVΔ51-Luc [6]): more abundant presence of VSV antigen; viral replication in tumor-bearing mice (IVIS) (VSVΔ51-Luc [6]; ip): more robust viral replication; VSV replication in SW620 tumors (VSVΔ51-Luc [6]; iv): enhancing effect; VSV neutralizing antibody production [8]: Inhibit; VSV-G specific antibody production (miniblot) [8]: Inhibit; VSV in spleen and lungs (24 hours): sensitive/permissive to VSV; VSV in spleen and lungs (72 hours): started to clear out; loss of total weight (mouse, in vivo): approximately 15%; survival of mice (mouse, in vivo): all of the mice survived; VSV biodistribution in major organs (mouse, in vivo, iv): comparable results of viral spread and replication in major organs
O=C(CCCCCCC(=O)Nc1ccccc1)NO [SAHA, suberoylanilide hydroxamic acid] | enhance VA7-mediated cytotoxicity | significantly inhibited IFN production | did not increase VSV-GFP replication | specific towards cancer cells | allowed effective VSV replication | allowed effective VSV replication | allowed detection of IRF3 phosphorylation and concomitant degradation | inhibited | increased JC-1 green fluorescence | significant activation | synergistically enhanced the number of Annexin V-positive apoptotic cells | not able to induce visible signs of cell death | decreased the induction of MxA mRNA | significantly lower; also recorded: undetectable levels | VA7 viral titers (pfu/ml) ([9]; SAHA 5 μM or Apicidin 1 μM 1 hour pre-treatment, MOI 0.01, DBT, CT2A, U251 cells, vs DMSO): enhanced the viral titers; Semliki forest virus spread (GFP photomicrographs) ([9]; SAHA 5 μM or Apicidin 1 μM, DBT cells, MOI 0.01, 30 hours): Enhance
CC(/C=C/C(=O)NO)=C\[C@@H](C)C(=O)c1ccc(N(C)C)cc1 [Trichostatin A] | – | – | – | – | – | – | – | – | – | – | – | – | – | – | VVdd spread (GFP photomicrographs) (VVDD [10]; MOI 0.1, 48 h): Increases; VVdd titers (pfu/ml) (VVDD [10]; MOI 0.1, 72 h): Increases; number of lung metastases (B16-F10-lacZ): Reduces the Number of Metastases
IFN-α | – | – | – | – | – | – | – | – | – | – | – | – | – | – | cell permissiveness to viral infection (GFP expression) (VSV-d51-GFP [11]): decrease cell permissiveness to viral infection
z-VAD-fmk | – | – | – | – | – | – | – | – | – | – | – | – | – | – | activation of apoptosis by VSV+MS-275 or VSV+SAHA (Annexin V) (PC3 cells): abrogated activation of apoptosis
